Target: T1, CMT3 (Arabidopsis thaliana, UniProt Q94F88)
T1 construct: residues 42-839; N-terminal His6-SUMO tag removed by ULP1; E. coli BL21(DE3) RIL
T1 sequence (Q94F88 42-839): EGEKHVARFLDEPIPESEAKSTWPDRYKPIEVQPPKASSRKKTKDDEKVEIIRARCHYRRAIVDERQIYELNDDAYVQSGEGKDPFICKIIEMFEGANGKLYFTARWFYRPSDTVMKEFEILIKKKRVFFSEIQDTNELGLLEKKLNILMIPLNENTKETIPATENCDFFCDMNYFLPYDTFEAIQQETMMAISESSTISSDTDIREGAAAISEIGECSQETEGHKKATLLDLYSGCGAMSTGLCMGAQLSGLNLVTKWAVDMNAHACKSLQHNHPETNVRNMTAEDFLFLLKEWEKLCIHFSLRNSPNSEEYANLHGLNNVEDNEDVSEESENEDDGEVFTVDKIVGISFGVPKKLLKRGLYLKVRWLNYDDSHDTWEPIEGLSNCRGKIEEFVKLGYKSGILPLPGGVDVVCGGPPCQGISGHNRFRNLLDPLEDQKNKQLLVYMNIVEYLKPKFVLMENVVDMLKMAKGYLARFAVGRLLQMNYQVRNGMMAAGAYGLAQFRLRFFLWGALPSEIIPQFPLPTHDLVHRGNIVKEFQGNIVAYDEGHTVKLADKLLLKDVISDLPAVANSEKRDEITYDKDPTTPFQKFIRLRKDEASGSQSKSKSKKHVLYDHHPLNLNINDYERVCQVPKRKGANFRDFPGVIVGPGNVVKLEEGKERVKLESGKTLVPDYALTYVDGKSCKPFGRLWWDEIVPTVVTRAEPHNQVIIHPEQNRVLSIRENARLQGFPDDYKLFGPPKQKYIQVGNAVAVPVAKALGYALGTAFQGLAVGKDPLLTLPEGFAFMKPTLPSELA
Assay: radiometric DNA methylation assay (3H-methyl transfer, nylon membrane)
Assay type: biochemical
Details: labelled compound; 0.56 uM [3H]SAM plus 1.96 uM SAM; 4.0 uM DNA; 4.0 uM histone peptide; no added NaCl; pH 8.0, 37 C, 1 h

SMILES: C[S+](CC[C@H](N)C(=O)O)C[C@H]1O[C@@H](n2cnc3c(N)ncnc32)[C@H](O)[C@@H]1O (stereo partly drawn) [SAM, S-adenosyl-L-methionine]
- radiometric DNA methylation assay (3H-methyl transfer, nylon membrane): All the rest of the reaction conditions for CMT3 were the same as those for ZMET2
